Values quoted from earlier work as cited in patent US20220339103A1, “Lung-targeted corticosteroid treatment in viral respiratory disease, COVID-19 and ARDS (acute respiratory distress syndrome)” (Bodor Laboratories, Inc., priority 2021, published 2022).
Read-outs that look alike come from different tables or passages of the source.

What was measured:
cotton pellet granuloma = details: for ED50, anti-inflammatory activity in the cotton pellet granuloma test: subcutaneous cotton pellet granuloma test
thymus = details: for TD50, thymolysis potency: subcutaneous cotton pellet granuloma test
Paraoxonase 1 = Paraoxonase 1 (Homo sapiens, UniProt P27169)
[1] = 0.2% ophthalmic suspension, 159 patients treated >1 yr
[2] = molecular target: T1, rat lung cytosol glucocorticoid receptors (Rattus norvegicus, UniProt P06536); details: compared with dexamethasone
T1 construct: from tissue; host or cells: rat lung cytosol
T1 sequence (P06536 1-795): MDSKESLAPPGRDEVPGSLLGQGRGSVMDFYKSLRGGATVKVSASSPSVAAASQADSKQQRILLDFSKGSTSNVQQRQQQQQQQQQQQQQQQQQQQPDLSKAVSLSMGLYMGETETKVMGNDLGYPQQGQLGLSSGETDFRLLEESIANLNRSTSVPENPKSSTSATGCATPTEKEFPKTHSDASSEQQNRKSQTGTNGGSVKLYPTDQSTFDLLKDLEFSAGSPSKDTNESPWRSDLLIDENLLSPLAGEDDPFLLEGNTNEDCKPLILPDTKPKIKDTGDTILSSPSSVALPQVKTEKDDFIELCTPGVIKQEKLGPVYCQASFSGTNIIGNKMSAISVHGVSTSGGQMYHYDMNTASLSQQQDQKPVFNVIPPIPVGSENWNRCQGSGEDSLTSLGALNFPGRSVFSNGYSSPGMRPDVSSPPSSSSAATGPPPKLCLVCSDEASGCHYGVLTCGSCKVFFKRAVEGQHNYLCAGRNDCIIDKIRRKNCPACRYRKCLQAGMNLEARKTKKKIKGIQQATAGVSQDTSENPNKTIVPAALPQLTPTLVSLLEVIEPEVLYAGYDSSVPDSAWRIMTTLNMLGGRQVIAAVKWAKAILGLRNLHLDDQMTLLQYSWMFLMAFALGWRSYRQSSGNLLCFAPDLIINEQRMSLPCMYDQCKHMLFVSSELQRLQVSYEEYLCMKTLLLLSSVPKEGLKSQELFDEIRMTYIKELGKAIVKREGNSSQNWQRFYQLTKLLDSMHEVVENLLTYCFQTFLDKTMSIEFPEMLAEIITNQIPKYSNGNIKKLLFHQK

[3] = tested on: hypothalamic-pituitary axis; details: at any Loteprednol Etabonate use
intraocular pressure [4] = details: corneal transplant patients developing very high IOP
intraocular pressure [5] = details: long-term use, 28 days or longer; LE 0.2% or 0.5%, prednisolone acetate 1%
[6] = human vasoconstrictor studies
[7] = tested on: seasonal allergic rhinitis (SAR) to grass pollen; details: nasal spray, 100-800 μg, 645 SAR patients, vs PLA, p<0.03
[8] = betamethasone 17α-valerate = 1.00

Paraoxonase 1, sequence (P27169 whole entry): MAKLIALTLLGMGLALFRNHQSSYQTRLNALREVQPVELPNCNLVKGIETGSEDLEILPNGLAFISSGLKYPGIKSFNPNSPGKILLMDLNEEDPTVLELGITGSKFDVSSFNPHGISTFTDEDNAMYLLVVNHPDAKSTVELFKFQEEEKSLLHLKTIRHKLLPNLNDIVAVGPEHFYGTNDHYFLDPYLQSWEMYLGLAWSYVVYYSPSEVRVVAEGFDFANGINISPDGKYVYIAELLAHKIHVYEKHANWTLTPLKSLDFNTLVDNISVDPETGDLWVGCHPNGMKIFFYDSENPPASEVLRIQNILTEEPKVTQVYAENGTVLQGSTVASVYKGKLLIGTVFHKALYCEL

Row | SMILES | Rel.pot., relative inflammatory effect compared to betamethasone (cotton pellet granuloma; [8]) | ED50, anti-inflammatory activity in the cotton pellet granuloma test (cotton pellet granuloma) [μg/pellet] | Rel.pot., relative timolysis effect (thymus; [8]) | TD50, thymolysis potency (thymus) | Rel.pot., relative timolysis effect (thymus; in vivo) | Rel.pot., relative inflammatory effect compared to betamethasone (cotton pellet granuloma; in vivo) | hydrolyzing esterase (Paraoxonase 1) | adverse effects of long-term use [1] | corticosteroid receptor binding [2] | suppression of the hypothalamic-pituitary axis [3] | IOP after replacing prednisolone acetate with LE (intraocular pressure [4]) | IOP elevation greater than or equal to 10 mmHg, share of subjects (intraocular pressure [5]) [%] | topical activity [6] | change from baseline in two-week average reflective Total Nasal Symptom Score (TNSS) [7]
1 | CCCCC(=O)O[C@]1(C(=O)CO)[C@@H](C)C[C@H]2[C@@H]3CCC4=CC(=O)C=C[C@]4(C)[C@@]3(F)[C@@H](O)C[C@@]21C [Betamethasone 17α-valerate (BV) (0.12%), Betamethasone 17α-valerate] | 1.00 | 84.8 | 1.00 | 212 μg/pellet | – | – | – | – | – | – | – | – | – | –
2 | CCC(=O)O[C@]1(C(=O)CCl)[C@@H](C)C[C@H]2[C@@H]3CCC4=CC(=O)C=C[C@]4(C)[C@@]3(F)C(=O)C[C@@]21C [Clobetasone-17α-propi onate (KP) (0.1%), Clobetasone-17α-propi onate] | 29.70 | 2.9 | 19.30 | 11 μg/pellet | – | – | – | – | – | – | – | – | – | –
3 | CCCC(=O)O[C@]1(C(=O)CO)CC[C@H]2[C@@H]3CCC4=CC(=O)CC[C@]4(C)[C@H]3[C@@H](O)C[C@@]21C [Hydrocortisone 17α-butyrate (HB) (0.1%), Hydrocortisone 17α-butyrate] | 0.70 | 121.0 | – | 369 μg/pellet | 0.57 | – | – | – | – | – | – | – | – | –
4 | CCOC(=O)O[C@]1(C(=O)OCCl)CC[C@H]2[C@@H]3CCC4=CC(=O)C=C[C@]4(C)[C@H]3[C@@H](O)C[C@@]21C [Loteprednol Etabonate, chloromethyl 17α-ethoxycarbonyloxy-11β-hydroxyandrosta-1,4-dien-3-one-17β-carboxylate] | – | 178.0 | – | 10,000 μg/pellet | 0.02 | 0.48 | hydrolyzed by the HDL-connected Paraoxonase 1 | no reported adverse effects | significantly higher than that of dexamethasone | no significant suppression | all IOP-s were returned to normal | 0.64 | very good topical activity | significantly more efficacious than PLA
